Key:
NaV1.7 [1] = molecular target: T1, NaV1.7 (Homo sapiens (Human), UniProt Q15858); test: Patch voltage clamp electrophysiology (EP), affinity for the inactivated state of Nav1.7; assay type: cell-based; details: HEK-293 cells expressing human Nav1.7 with β1 subunit
Protocol: The following patch voltage clamp electrophysiology studies were performed on representative compounds of the invention using human embryonic kidney cells (HEK), permanently transfected with an expression vector containing the full-length cDNA coding for the desired human sodium channel α-subunit, grown in culture media containing 10% FBS, 1% PSG, and 0.5 mg/mL G418 at 37° C. with 5% CO2. […] Nav1.7 and Nav1.5 cDNAs (NM_002977 and AC137587; SCN5A, respectively) were stably expressed in HEK-293 cells. The β1 subunit was coexpressed only in the Nav1.7 cell line.
Sodium currents were measured using the patch clamp technique in the whole-cell configuration using either a PatchXpress automated voltage clamp or manually using an Axopatch 200B (Axon Instruments) or Model 2400 (A-M systems) amplifier. […] The pipette was filled with a solution comprised of: 5 mM NaCl, 10 mM CsCl, 120 mM CsF, 0.1 mM CaCl2, 2 mM MgCl2, 10 mM HEPES, 10 mM EGTA; and adjusted to pH 7.2 with CsOH. The external solution had the following composition: 140 mM NaCl, 5 mM KCl, 2 mM CaCl2, 1 mM MgCl2, 10 mM HEPES; and adjusted to pH 7.4 with NaOH. In some studies, the external sodium was reduced by equimolar replacement with choline. Osmolarity in the CsF internal and NaCl external solutions was adjusted to 300 mOsm/kg and 310 mOsm/kg with glucose, respectively. All recordings were performed at ambient temperature in a bath chamber with a volume of 150 μL. Control sodium currents were measured in 0.5% DMSO. Controls and representative compounds of the invention were applied to the recording chamber through a 4-pinch or 8-pinch valve bath perfusion system manufactured by ALA Scientific Instruments.
Series resistance compensation was applied (60-80%). […] All statistics in this study are given as mean±SD.
The membrane potential was maintained at a voltage where inactivation of the channel is complete (which was −60 mV for both Nav1.7 and Nav1.5). The voltage is then stepped back to a very negative (Vhold=−150 mV) voltage for 20 ms and then a test pulse is applied to quantify the compound block. […] The percent decrease in sodium current following wash-on of compound was taken as the percent block of sodium channels.
The Example numbers provided in Table 1 and Table 2 correspond to the Examples herein: […]

NaV1.7 [2] = molecular target: T1, NaV1.7; test: NaV flux assay, inhibition of NaV1.7; assay type: cell-based; details: NaV flux data, included when EP data is not available

T1 sequence (Q15858 other isoform, or with tags, fused parts or gaps): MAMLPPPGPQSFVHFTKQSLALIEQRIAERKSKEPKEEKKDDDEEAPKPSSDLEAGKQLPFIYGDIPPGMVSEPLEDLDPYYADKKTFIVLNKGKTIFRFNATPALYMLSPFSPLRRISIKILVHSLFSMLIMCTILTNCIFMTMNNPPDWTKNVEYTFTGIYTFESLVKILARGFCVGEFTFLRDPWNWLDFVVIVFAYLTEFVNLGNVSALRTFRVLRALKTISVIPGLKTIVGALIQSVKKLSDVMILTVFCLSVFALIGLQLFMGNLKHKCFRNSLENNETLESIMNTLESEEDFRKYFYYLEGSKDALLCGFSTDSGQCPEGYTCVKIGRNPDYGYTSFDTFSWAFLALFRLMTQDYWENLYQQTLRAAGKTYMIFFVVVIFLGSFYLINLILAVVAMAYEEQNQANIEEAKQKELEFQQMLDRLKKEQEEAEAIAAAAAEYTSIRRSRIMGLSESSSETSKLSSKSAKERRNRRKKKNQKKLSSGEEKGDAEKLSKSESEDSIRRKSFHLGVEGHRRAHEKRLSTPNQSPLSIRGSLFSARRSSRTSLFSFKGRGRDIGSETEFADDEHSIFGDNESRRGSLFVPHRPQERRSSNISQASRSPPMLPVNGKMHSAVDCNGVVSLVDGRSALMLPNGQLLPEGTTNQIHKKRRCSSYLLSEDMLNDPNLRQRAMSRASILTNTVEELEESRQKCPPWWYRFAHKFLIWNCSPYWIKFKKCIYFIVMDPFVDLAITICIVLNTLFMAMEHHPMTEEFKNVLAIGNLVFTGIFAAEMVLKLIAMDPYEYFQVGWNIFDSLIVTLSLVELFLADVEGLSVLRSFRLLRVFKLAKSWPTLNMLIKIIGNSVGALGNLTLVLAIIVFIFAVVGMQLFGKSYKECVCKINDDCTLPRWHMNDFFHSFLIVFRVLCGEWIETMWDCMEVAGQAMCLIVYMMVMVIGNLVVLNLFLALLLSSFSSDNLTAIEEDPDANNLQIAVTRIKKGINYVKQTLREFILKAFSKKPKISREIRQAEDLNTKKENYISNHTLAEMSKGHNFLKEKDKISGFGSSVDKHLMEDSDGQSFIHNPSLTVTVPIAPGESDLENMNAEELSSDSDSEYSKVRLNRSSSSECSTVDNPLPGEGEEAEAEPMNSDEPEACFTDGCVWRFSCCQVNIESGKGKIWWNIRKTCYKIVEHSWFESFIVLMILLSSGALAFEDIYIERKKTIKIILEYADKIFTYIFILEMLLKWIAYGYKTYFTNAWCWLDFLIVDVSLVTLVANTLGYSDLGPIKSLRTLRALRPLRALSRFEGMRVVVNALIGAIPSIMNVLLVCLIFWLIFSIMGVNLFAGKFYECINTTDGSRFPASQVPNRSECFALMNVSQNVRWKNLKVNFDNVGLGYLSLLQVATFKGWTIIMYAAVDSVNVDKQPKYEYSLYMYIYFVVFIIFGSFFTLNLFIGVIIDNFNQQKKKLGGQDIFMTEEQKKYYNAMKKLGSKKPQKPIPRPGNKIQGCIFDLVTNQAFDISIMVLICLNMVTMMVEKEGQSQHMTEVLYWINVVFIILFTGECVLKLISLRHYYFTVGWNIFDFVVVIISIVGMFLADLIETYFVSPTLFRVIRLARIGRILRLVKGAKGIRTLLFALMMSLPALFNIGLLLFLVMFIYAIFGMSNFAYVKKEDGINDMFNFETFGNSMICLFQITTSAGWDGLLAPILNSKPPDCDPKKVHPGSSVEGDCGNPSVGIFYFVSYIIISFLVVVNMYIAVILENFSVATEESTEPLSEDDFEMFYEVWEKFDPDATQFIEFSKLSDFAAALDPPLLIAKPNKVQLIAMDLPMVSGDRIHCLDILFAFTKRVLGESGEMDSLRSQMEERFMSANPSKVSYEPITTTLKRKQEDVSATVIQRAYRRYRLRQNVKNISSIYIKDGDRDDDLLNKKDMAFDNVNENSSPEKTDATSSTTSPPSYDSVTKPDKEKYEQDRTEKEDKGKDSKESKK
T1 sequence (Q07699 19-218 partner): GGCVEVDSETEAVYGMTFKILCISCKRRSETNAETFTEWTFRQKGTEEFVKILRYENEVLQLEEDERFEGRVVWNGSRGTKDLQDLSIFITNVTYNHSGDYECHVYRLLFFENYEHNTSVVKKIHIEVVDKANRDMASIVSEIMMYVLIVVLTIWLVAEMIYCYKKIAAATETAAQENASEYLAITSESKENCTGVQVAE

| Compound | IC50 (NaV1.7 [1]; read-out: NaV1.7 (IC50 class)) [µM] | IC50 (NaV1.7 [1]; read-out: NaV1.7 IC50) [µM] | IC50 (NaV1.7 [2]) [µM] |
| --- | --- | --- | --- |
| O=S(=O)(Nc1ncns1)c1cc(F)c(OC[C@@H]2CNCC[C@H]2c2ccc(Cl)cc2)cc1F [Example 84, 4-(((3S,4R)-4-(4-chlorophenyl)piperidin-3-yl)methoxy)-2,5-difluoro-N-(1,2,4-thiadiazol-5-yl)benzenesulfonamide] | < 0.1 |  |  |
| Cc1cc(NS(=O)(=O)c2cc(F)c(OC[C@@H]3CNCC[C@H]3c3ccc(Cl)cc3)cc2F)no1 (relative stereo) [Example 56, 4-((trans-4-(4-chlorophenyl)piperidin-3-yl)methoxy)-2,5-difluoro-N-(5-methylisoxazol-3-yl)benzenesulfonamide] | 1 to 10 | 1.89 |  |
| CC(C)NS(=O)(=O)c1ccc(OC[C@@H]2CNCC[C@H]2c2ccc(Cl)cc2)c(C#N)c1 (relative stereo) [Example 90, 4-((trans-4-(4-chlorophenyl)piperidin-3-yl)methoxy)-3-cyano-N-isopropylbenzenesulfonamide] |  |  | > 10 |
| O=S(=O)(Nc1ncns1)c1cc(F)c(OC[C@@H]2CN(CC(F)F)CC[C@H]2c2ccc(Cl)cc2)cc1F (relative stereo) [Example 83, 4-((trans-4-(4-chlorophenyl)-1-(2,2-difluoroethyl)piperidin-3-yl)methoxy)-2,5-difluoro-N-(1,2,4-thiadiazol-5-yl)benzenesulfonamide] | < 0.1 | 0.0381 |  |
| O=S(=O)(Nc1cccnn1)c1cc(F)c(OC[C@@H]2CNCC[C@H]2c2ccc(Cl)cc2)cc1F (relative stereo) [Example 65, 4-((trans-4-(4-chlorophenyl)piperidin-3-yl)methoxy)-2,5-difluoro-N-(pyridazin-3-yl)benzenesulfonamide] | 0.1 to 1 | 0.171 |  |
| O=C(NS(=O)(=O)c1cc(F)c(OC[C@@H]2CNCC[C@H]2c2ccc(Cl)cc2)cc1F)c1ccccc1 (relative stereo) [Example 104, N-((4-((trans-4-(4-chlorophenyl)piperidin-3-yl)methoxy)-2,5-difluorophenyl)sulfonyl)benzamide] |  |  | > 10 |
| O=S(=O)(Nc1ncns1)c1cc(F)c(OC[C@@H]2CCNC[C@H]2c2ccc(F)cc2)cc1F (relative stereo) [Example 82, 2,5-difluoro-4-((trans-3-(4-fluorophenyl)piperidin-4-yl)methoxy)-N-(1,2,4-thiadiazol-5-yl)benzenesulfonamide] | < 0.1 | 0.0317 |  |
| Cc1cnc(NS(=O)(=O)c2cc(F)c(OC[C@@H]3CNCC[C@H]3c3ccc(Cl)cc3)cc2F)s1 (relative stereo) [Example 57, 4-((trans-4-(4-chlorophenyl)piperidin-3-yl)methoxy)-2,5-difluoro-N-(5-methylthiazol-2-yl)benzenesulfonamide] | 0.1 to 1 | 0.116 |  |
| O=S(=O)(Nc1ncns1)c1cc(F)c(OC[C@@H]2CCCC[C@H]2c2ccc(F)cc2)cc1F (relative stereo) [Example 68, 2,5-difluoro-4-((trans-2-(4-fluorophenyl)cyclohexyl)methoxy)-N-(1,2,4-thiadiazol-5-yl)benzenesulfonamide] | 0.1 to 1 | 0.28 |  |
| O=S(=O)(Nc1ncns1)c1cc(F)c(OC[C@H]2CNCC[C@@H]2c2ccc(Cl)cc2)cc1F [Example 77, 4-(((3R,4S)-4-(4-chlorophenyl)piperidin-3-yl)methoxy)-2,5-difluoro-N-(1,2,4-thiadiazol-5-yl)benzenesulfonamide] | < 0.1 | 0.0011 |  |
| CC(=O)NS(=O)(=O)c1cc(F)c(OC[C@@H]2CNCC[C@H]2c2ccc(Cl)cc2)cc1F (relative stereo) [Example 102, N-((4-((trans-4-(4-chlorophenyl)piperidin-3-yl)methoxy)-2,5-difluorophenyl)sulfonyl)acetamide] |  |  | > 10 |
| N#Cc1cc(S(=O)(=O)NC2(C#N)CC2)ccc1OC[C@@H]1CNCC[C@H]1c1ccc(Cl)cc1 (relative stereo) [Example 91, 4-((trans-4-(4-chlorophenyl)piperidin-3-yl)methoxy)-3-cyano-N-(1-cyanocyclopropyl)benzenesulfonamide] |  |  | > 10 |
| O=C(NS(=O)(=O)c1cc(F)c(OC[C@@H]2CNCC[C@H]2c2ccc(Cl)cc2)cc1F)c1cccnc1 (relative stereo) [Example 103, N-((4-((trans-4-(4-chlorophenyl)piperidin-3-yl)methoxy)-2,5-difluorophenyl)sulfonyl)nicotinamide] |  |  | > 10 |
| O=S(=O)(Nc1ncns1)c1cc(F)c(OC[C@@H]2CNC[C@H]2c2ccc(Cl)cc2)cc1F (relative stereo) [Example 54, 4-((trans-4-(4-chlorophenyl)pyrrolidin-3-yl)methoxy)-2,5-difluoro-N-(1,2,4-thiadiazol-5-yl)benzenesulfonamide] | < 0.1 | 0.0499 |  |
| O=S(=O)(Nc1ncccn1)c1cc(F)c(OC[C@@H]2CNCC[C@H]2c2ccc(Cl)cc2)cc1F (relative stereo) [Example 49, 4-((trans-4-(4-chlorophenyl)piperidin-3-yl)methoxy)-2,5-difluoro-N-(pyrimidin-2-yl)benzenesulfonamide] | < 0.1 | 0.0532 |  |
| CC(C)(C)OC(=O)N1CC[C@@H](c2ccc(Cl)cc2)[C@H](COc2cc(F)c(S(=O)(=O)Nc3ncns3)cc2F)C1 (relative stereo) [Example 69, trans-tert-butyl 3-((4-(N-(1,2,4-thiadiazol-5-yl)sulfamoyl)-2,5-difluorophenoxy)methyl)-4-(4-chlorophenyl)piperidine-1-carboxylate] | 0.1 to 1 | 0.164 |  |
| O=S(=O)(Nc1ncns1)c1cc(F)c(OC[C@@H]2CNCC[C@H]2c2ccc(F)cc2)cc1F [Example 46, 2,5-difluoro-4-(((3S,4R)-4-(4-fluorophenyl)piperidin-3-yl)methoxy)-N-(1,2,4-thiadiazol-5-yl)benzenesulfonamide] | 0.1 to 1 | 0.928 |  |
| Cc1nsc(NS(=O)(=O)c2cc(F)c(OC[C@@H]3CNCC[C@H]3c3ccc(Cl)cc3)cc2F)n1 (relative stereo) [Example 52, 4-((trans-4-(4-chlorophenyl)piperidin-3-yl)methoxy)-2,5-difluoro-N-(3-methyl-1,2,4-thiadiazol-5-yl)benzenesulfonamide] | 0.1 to 1 | 0.194 |  |
| O=S(=O)(Nc1ncns1)c1cc(F)c(OC[C@H]2CNCC[C@H]2c2ccc(Cl)cc2)cc1F (relative stereo) [Example 66, 4-((cis-4-(4-chlorophenyl)piperidin-3-yl)methoxy)-2,5-difluoro-N-(1,2,4-thiadiazol-5-yl)benzenesulfonamide] |  | 0.237 |  |
| O=S(=O)(Nc1ccc(F)cn1)c1cc(F)c(OC[C@@H]2CNCC[C@H]2c2ccc(Cl)cc2)cc1F (relative stereo) [Example 63, 4-((trans-4-(4-chlorophenyl)piperidin-3-yl)methoxy)-2,5-difluoro-N-(5-fluoropyridin-2-yl)benzenesulfonamide] | < 0.1 | 0.0705 |  |
| O=S(=O)(Nc1ncccn1)c1cc(F)c(OC[C@@H]2CNCC[C@H]2c2ccc(F)cc2)cc1F (relative stereo) [Example 50, 2,5-difluoro-4-((trans-4-(4-fluorophenyl)piperidin-3-yl)methoxy)-N-(pyrimidin-2-yl)benzenesulfonamide] | 0.1 to 1 | 0.323 |  |
| O=S(=O)(Nc1ncns1)c1cc(F)c(OC[C@@H]2CN(CCF)CC[C@H]2c2ccc(Cl)cc2)cc1F (relative stereo) [Example 80, 4-((trans-4-(4-chlorophenyl)-1-(2-fluoroethyl)piperidin-3-yl)methoxy)-2,5-difluoro-N-(1,2,4-thiadiazol-5-yl)benzenesulfonamide] | < 0.1 | 0.0937 |  |
| O=S(=O)(Nc1ncns1)c1cc(F)c(OC[C@@H]2CNCC[C@H]2c2ccc(Cl)cc2)cc1F (relative stereo) [Example 44, 4-((trans-4-(4-chlorophenyl)piperidin-3-yl)methoxy)-2,5-difluoro-N-(1,2,4-thiadiazol-5-yl)benzenesulfonamide] | < 0.1 |  |  |
| O=S(=O)(Nc1nncs1)c1cc(F)c(OC[C@@H]2CNCC[C@H]2c2ccc(Cl)cc2)cc1F (relative stereo) [Example 51, 4-((trans-4-(4-chlorophenyl)piperidin-3-yl)methoxy)-2,5-difluoro-N-(1,3,4-thiadiazol-2-yl)benzenesulfonamide] | < 0.1 | 0.0844 |  |
